In patent US20240025858A1, “CANNABINOID DERIVATIVES AS […] ACTIVE COMPOUNDS AND METHOD OF PREPARATION THEREOF” (GW Research Limited, priority 2020, published 2024):

What was measured:
[1] = system: mouse model of generalised seizure; assay: mini-MEST (maximal electroshock seizure threshold test, minimal sample sizes) in the mouse; details: for change in vivo at 50 mg/kg / change in vivo at 5 mg/kg: Mus musculus, ip, change in CC50; for change in vivo at 50 mg/kg: 0.5 h, read-out: % change from vehicle, 50 mg/kg i.p., 30 min post dose; for change in vivo at 5 mg/kg: 0.25 h, read-out: % change from vehicle, 5 mg/kg i.p., 15 min post dose
Method: In the MEST test the ability of a drug to alter the seizure threshold current required to induce hind limb tonic extensor convulsions is measured according to an “up and down” method of shock titration (Kimball et al., 1957).
The ability of a test compound to alter the stimulus intensity, expressed as current (mA), required to induce the presence of tonic hind limb extensor convulsions, is assessed in the MEST.
Naïve mice were acclimatised to the procedure room in their home cages for up to 7 days, with food and water available ad libitum.
All animals were weighed at the beginning of the study and randomly assigned to treatment groups based on a mean distribution of body weight across groups.
The first animal within a treatment group was given a shock at the expected or estimated CC50 current. For subsequent animals, the current was lowered or raised depending on the convulsions outcome from the preceding animal in log scale intervals.
Data generated from each treatment group were used to calculate the CC50 ±SEM values for the treatment group.
The test compounds used were 1, 2, 3, 4 and 5. Test compounds were administered at 5-50 mg/kg (i.p.) in a 1:2:17 ethanol:solutol:saline formulation.
The data for each treatment group were recorded as the number of +'s and 0's at each current level employed and this information is then used to calculate the CC50 value (current required for 50% of the animals to show seizure behaviour) ±standard error.
Test compound effects were also calculated as percentage change in CC50 from the vehicle control group.
The test compounds used were 12, 42 and 43. Test compounds were administered at 5-50 mg/kg (i.p.) in a 1:2:17 ethanol:solutol:saline formulation.
The test compounds used were 6, 13, 22, 26, 28, 33, 38 and 46. Test compounds were administered at 5-50 mg/kg (i.p.) in a 1:2:17 ethanol:solutol:saline formulation.
The test compound used was 36. Test compound was administered at 5 and 50 mg/kg (i.p.) in a 1:2:17 ethanol:solutol:saline formulation.

[2] = system: mouse model of generalised seizure; assay: MEST (maximal electroshock seizure threshold) test in the mouse; details: for % change from vehicle: change in CC50
Method: The efficacy of the cannabinoid derivative of 1 was tested in a mouse model of generalised seizure, the maximal electroshock seizure threshold (MEST) test.
The protocol according to Example 2 was followed, with the current lowered or raised in intervals of 5 mA instead of log scale intervals.

[3] = 50 mg/kg i.p., test 30 min post dose
[4] = 5 mg/kg i.p., test 15 min post dose

Row | Structure (SMILES) | CC50 +/− SEM [1, 3] [mA] | change in vivo at 50 mg/kg [1] [%] | CC50 +/− SEM [1, 4] [mA] | change in vivo at 5 mg/kg [1] [%] | other results
1 | C=C(C)[C@@H]1CCC(C)=C[C@H]1c1c(O)cc(-c2ncn(C)n2)cc1O [Compound 33, (1′R,2′R)-5′-Methyl-4-(1-methyl-1H-1,2,4-triazol-3-yl)-2′-(prop-1-en-2-yl)-1′,2′,3′,4′-tetrahydro-[1, 1′-biphenyl]-2,6-diol] | 53.5 | 138 | – | – | –
2 | C=C(C)[C@@H]1CCC(C)=C[C@H]1c1c(O)cc(-c2cnn(CCN(C)C)c2)cc1O [Compound 6, (1′R,2′R)-4-(1-(2-(Dimethylamino)ethyl)-1H-pyrazol-4-yl)-5′-methyl-2′-(prop-1-en-2-yl)-1′,2′,3′,4′-tetrahydro-[1,1′-biphenyl]-2,6-diol] | <43 | < 76 | – | – | –
3 | C=C(C)[C@@H]1CCC(C)=C[C@H]1c1c(O)cc(-n2cnc(C)n2)cc1O [Compound 26, (1′R,2′R)-5′-Methyl-4-(3-methyl-1H-1,2,4-triazol-1-yl)-2′-(prop-1-en-2-yl)-1′,2′,3′,4′-tetrahydro-[1,1′-biphenyl]-2,6-diol] | 75.0 | 233 | – | – | –
4 | C=C(C)[C@@H]1CCC(C)=C[C@H]1c1c(O)cc(-c2cn(C)nc2C)cc1O [Compound 3, (1′R,2′R)-4-(1,3-Dimethyl-1H-pyrazol-4-yl)-5′-methyl-2′-(prop-1-en-2-yl)-1′,2′,3′,4′-tetrahydro-[1,1′-biphenyl]-2,6-diol] | 62.5 | 150 | 27.5 | 10 | –
5 | C=C(C)[C@@H]1CCC(C)=C[C@H]1c1c(O)cc(-c2cn(C)cn2)cc1O [Compound 28, (1′R,2′R)-5′-Methyl-4-(1-methyl-1H-imidazol-4-yl)-2′-(prop-1-en-2-yl)-1′,2′,3′,4′-tetrahydro-[1,1′-biphenyl]-2,6-diol] | 35.5 | 58 | 25.0 | 11 | –
6 | C=C(C)[C@@H]1CCC(C)=C[C@H]1c1c(O)cc(N(C)c2cccnc2)cc1O [Compound 46, (1′R,2′R)-5′-Methyl-4-(methyl(pyridin-3-yl)amino)-2′-(prop-1-en-2-yl)-1′,2′,3′,4′-tetrahydro-[1, 1′-biphenyl]-2,6-diol] | 61.5 | 132 | – | – | –
7 | C=C(C)[C@@H]1CCC(C)=C[C@H]1c1c(O)cc(-c2ccn(C)c(=O)c2)cc1O [Compound 42, 4-((1′R,2′R)-2,6-dihydroxy-5′-methyl-2′-(prop-1-en-2-yl)-1′,2′,3′,4′-tetrahydro-[1,1′-biphenyl]-4-yl)-1-methylpyridin-2(1H)-one] | 67.5 | 132 | – | – | –
8 | C=C(C)[C@@H]1CCC(C)=C[C@H]1c1c(O)cc(-c2cnn(CCO)c2C)cc1O [Compound 5, (1′R,2′R)-4-(1-(2-Hydroxyethyl)-5-methyl-1H-pyrazol-4-yl)-5′-methyl-2′-(prop-1-en-2-yl)-1′,2′,3′,4′-tetrahydro-[1,1′-biphenyl]-2,6-diol] | 60.5 | 169 | – | – | –
9 | C=C(C)[C@@H]1CCC(C)=C[C@H]1c1c(O)cc(-c2cnn(CC(C)O)c2)cc1O (stereo partly drawn) [Compound 22, (1′R,2′R)-4-(1-(2-Hydroxypropyl)-1H-pyrazol-4-yl)-5′-methyl-2′-(prop-1-en-2-yl)-1′,2′,3′,4′-tetrahydro-[1,1′-biphenyl]-2,6-diol] | 66.0 | 149 | 33.0 | 25 | –
10 | CN1C(=O)CN=C(c2ccccc2)c2cc(Cl)ccc21 [Diazepam, diazepam, reference compound] | – | – | – | – | % change from vehicle ([2]; diazepam 2.5 mg/kg i.p., 30 min post dose): 224%
11 | C=C(C)[C@@H]1CCC(C)=C[C@H]1c1c(O)cc(-c2ccc(OC)nc2)cc1O [Compound 12, (1′R,2′R)-4-(6-Methoxypyridin-3-yl)-5′-methyl-2′-(prop-1-en-2-yl)-1′,2′,3′,4′-tetrahydro-[1,1′-biphenyl]-2,6-diol] | >131 | > 394 | 25.0 | -6 | convulsions observed ([1]; 50 mg/kg, CC50 not reached): no animals had any convulsions
12 | C=C(C)[C@@H]1CCC(C)=C[C@H]1c1c(O)cc(-c2cnn(CCO)c2)cc1O [Compound 2, (1′R,2′R)-4-(1-(2-Hydroxyethyl)-1H-pyrazol-4-yl)-5′-methyl-2′-(prop-1-en-2-yl)-1′,2′,3′,4′-tetrahydro-[1,1′-biphenyl]-2,6-diol] | <35.0 | < 40 | 32.5 | 30 | –
13 | C=C(C)[C@@H]1CCC(C)=C[C@H]1c1c(O)cc(-c2cnn(CC(C)(C)O)c2)cc1O [Compound 1, (1′R,2′R)-4-(1-(2-Hydroxy-2-methylpropyl)-1H-pyrazol-4-yl)-5′-methyl-2′-(prop-1-en-2-yl)-1′,2′,3′,4′-tetrahydro-[1,1′-biphenyl]-2,6-diol] | 119.5 | 388 | – | – | % change from vehicle ([2]; 1 mg/kg i.p., 15 min post dose): 10%; CC50 +/− SEM ([2]; 1 mg/kg i.p., test 15 min post dose): 28.5 mA; % change from vehicle ([2]; 5 mg/kg i.p., 15 min post dose): 21%; CC50 +/− SEM [2, 4]: 31.5 mA; % change from vehicle ([2]; 50 mg/kg i.p., 30 min post dose): 213%; CC50 +/− SEM [2, 3]: 81.5 mA
14 | C=C(C)[C@@H]1CCC(C)=C[C@H]1c1c(O)cc(-c2cn(C)nn2)cc1O [Compound 4, (1′R,2′R)-5′-Methyl-4-(1-methyl-1H-1,2,3-triazol-4-yl)-2′-(prop-1-en-2-yl)-1′,2′,3′,4′-tetrahydro-[1, 1′-biphenyl]-2,6-diol] | 70.5 | 213 | 28.3 | 26 | –
15 | C=C(C)[C@@H]1CCC(C)=C[C@H]1c1c(O)cc(-c2cnn(C3COC3)c2)cc1O [Compound 38, (1′R,2′R)-5′-Methyl-4-(1-(oxetan-3-yl)-1H-pyrazol-4-yl)-2′-(prop-1-en-2-yl)-11,2′,3′,4′-tetrahydro-[1, 1′-biphenyl]-2,6-diol] | 79.5 | 200 | – | – | –
16 | C=C(C)[C@@H]1CCC(C)=C[C@H]1c1c(O)cc(-c2cccnc2OC)cc1O [Compound 43, (1′R,2′R)-4-(2-methoxypyridin-3-yl)-5′-methyl-2′-(prop-1-en-2-yl)-1′,2′,3′,4′-tetrahydro-[1,1′-biphenyl]-2,6-diol] | 58.2 | 96 | – | – | –
17 | C=C(C)[C@@H]1CCC(C)=C[C@H]1c1c(O)cc(-c2cnn(CCN3CCOCC3)c2)cc1O [Compound 13, (1′R,2′R)-5′-Methyl-4-(1-(2-morpholinoethyl)-1H-pyrazol-4-yl)-2′-(prop-1-en-2-yl)-1′,2′,3′,4′-tetrahydro-[1,1′-biphenyl]-2,6-diol] | 37.2 | 58 | 25.0 | 6 | –
18 | CC1=C[C@@H](c2c(O)cc(-c3cnn(C)c3)cc2O)[C@H](C(C)C)CC1 [Compound 36, (1′S,2′S)-2′-Isopropyl-5′-methyl-4-(1-methyl-1H-pyrazol-4-yl)-1′,2′,3′,4′-tetrahydro-[1,1′-biphenyl]-2,6-diol] | 70.5 | 176 | 29.0 | 14 | CC50 value compared to vehicle ([1]; 5 and 50 mg/kg i.p., between 15 and 30 minutes before the test): statistically significant
